Data set [1] deals with neonatal mouse calvariae. Put plainly: Bone resorption in bone organ culture (45Ca release). It counts as cell-based. Conditions: for effect on basal bone resorption: 10^−8 M, calcium release, FIG. 6. The method, then: Bone resorption studies were carried out in neonatal mouse calvariae as described previously. Mice were injected subcutaneously with […] at 2 days of age, and hemicalvariae were dissected out four days later. Hemicalvariae were pre-incubated for 24 hours in medium 199 with 0.1% bovine serum albumin, then changed to fresh medium containing peptide or vehicle. Incubation was continued for a further 48 hours. There were 5-7 hemicalvariae in each group.

Data set [2] is described as follows: Catabolism of peptides in calvarial organ culture (pre-incubation, then test on osteoblast proliferation). Format: in vitro ADME, mouse. To be noted: for effect of pre-incubation for two hours on osteoblastic activity: pre-incubation in calvarial organ culture 2 hours; for effect of pre-incubation for two hours on osteoblastic activity / osteoblastic activity after pre-incubation for four or more hours: cell number or thymidine incorporation, FIG. 7; for osteoblastic activity after pre-incubation for four or more hours: pre-incubation in calvarial organ culture four or more hours; for ability to block amylin's stimulation of osteoblast proliferation after pre-incubation: pre-incubation with calvariae for six hours, FIG. 8. Here is the method: To determine whether the various peptide fragments underwent significant catabolism in organ culture, they were incubated with calvariae before being added to osteoblast cultures. The organ cultures were set up using hemicalvariae from animals that had not be pretreated with ^45Ca. The fragments or vehicle were incubated with the calvariae for 2, 4, or 6 hours. Extracts of the media were removed then immediately added to osteoblast cultures for measurement of their effects on osteoblast proliferation, as described above.
On the technique in general: Uptake of a labelled nucleoside into DNA is a usual measure of proliferation.

Data set [3] deals with fetal rat osteoblasts. Put plainly: Osteoblast proliferation studies (cell counts and [3H]-thymidine incorporation) in osteoblast-like cell culture. It counts as cell-based. To be noted: for effect on osteoblast cell number / effect on thymidine incorporation / proliferative effect on osteoblasts: 10^−9 M; for effect on osteoblast cell number: 24 h incubation; for effect on osteoblast cell number / effect on thymidine incorporation: FIG. 1; for effect on thymidine incorporation: last two hours of 24 h incubation; for EC50: read-out: half-maximally effective concentration on cell number; for concentration that completely blocked the proliferative effect of intact amylin: intact amylin 10^−9 M, cell number, FIG. 4; for proliferative effect on osteoblasts: cell number and thymidine incorporation; for blocking of the effects of amylin-(1-8) on osteoblast proliferation: equimolar concentrations; for blocking of the action of intact amylin on cell number / blocking of the action of intact amylin on thymidine incorporation: equimolar concentrations (10^−9 M), FIG. 5, FIG. 9. The method, then:
Osteoblasts were isolated by collagenase-digestion from 20-day fetal rat calvariae. Calvariae were dissected aseptically and the frontal and parietal bones were stripped of their periosteum. only the central portions of the bones, free from sutrue tissue, were collected. The calvariae were treated twice with phosphate buffered saline (PBS) containing 3 mM EDTA (pH 7.4) for 15 minutes at 37E C. in a shaking water bath. After washing once in PBS, the calvariae were treated twice with 3 ml of 1 mg/ml collagenase for 7 minutes at 37E C. After discarding the supernatants from digestions I and II, the calvariae were treated a further twice with 3 ml of 2 mg/ml collagenase (30 mins, 37E C.). The supernatants of digestions III and IV were pooled, centrifuged, and the cells washed in Dulbecco's modified Eagle's medium (DME) with 10% fetal calf serum (FCS), suspended in further DME/10% FCS and placed in 75 cm^2 flasks. The cells were incubated under 5% CO2 and 95% air at 37E C. Confluence was reached by 5-6 days, at which time the cells were subcultured. After trypsinization using trypsin-EDTA (0.05%/0.53 mM), the cells were rinsed in minimum essential medium (MEM) with 5% FCS and resuspended in fresh medium, the seeded at 5×10^4 cells/ml in 24-well plates (0.5 ml cell suspension per well, i.e. 2.5×10^4 cells/well).
Proliferation studies (cell counts and thymidine incorporation) were performed in subconfluent cell populations, 24 h after subculturing cells were changed to serum-free medium with 0.1% bovine serum albumin plus the experimental compounds. Cell numbers were analysed 24 hours after addition of the peptide or vehicle by detaching cells form the wells by exposure to trypsin/EDTA (0.05%/0.53 mM) for approximately 5 minutes at 37E C. Counting was performed in a hemocytometer chamber. Results are expressed per well. [^3H]-Thymidine incorporation into actively-growing and growth-arrested cells was assessed by pulsing the cells with [^3H]-thymidine ([…]) two hours before the end of the experimental incubation. Experiments were terminated at 24 hours by washing the cells in MEM followed by the addition of 10% trichloroacetic acid. The precipitate was washed twice with ethanol:ether (3:1) and the wells desiccated at room temperature. The residue was redissolved in 2 M KOH at 55E C. for 30 mins, neutralized with 1 M HCI, and an aliquot counted for radioactivity. Results are expressed as dpm per well. For cell counts and thymidine incorporation, each experiment was performed at least four different times using experimental groups consisting of at least six wells.

Data set [4] has as its system osteoblasts. Conditions: background section; cited from earlier work.
[5] abbreviates: listed as amylin (1-8) with 2 to 7 disulphide bond removed.

Bridge positions count the residues as written; N and C are the ends. Ends that are not written are not given here. Peptide text beside a SMILES is read from it.

Turning to “Amylin: 37-amino acid peptide co-secreted with insulin from the beta cells of the pancreatic islets; rat amylin used”, the “effect on basal bone resorption” value in data set [1] was “inhibited basal bone resorption”. Besides, in data set [2], the “effect of pre-incubation for two hours on osteoblastic activity” value is on record as “no effect” and the “osteoblastic activity after pre-incubation for four or more hours” value is given as “completely lost their activity”. Further, in data set [3], the “effect on osteoblast cell number” value is on record as “significant increase” and the “effect on thymidine incorporation” value is given as “significant increase”. Besides, the EC50 in data set [3] (24 h, FIG. 2) came out at 0.02 nM. Besides, the “concentrations giving dose-dependent stimulation of osteoblast proliferation” value in data set [4] is ≥ 10^−11 M.
Turning to “CGRP-(8-37): the comparable (8-37) peptide fragment from CGRP (calcitonin gene-related peptide) (VTHRLAGLLSRSGGVVKNNFVPTNVGSKAF; ends and bridges not checked)”, the “concentration that completely blocked the proliferative effect of intact amylin” value in data set [3] was > 10^−8 M.
Regarding “Reduced amylin (1-8): amylin (1-8) reduced with dithiothreitol, 2 to 7 disulphide bond removed (KCNTATCA; Islet amyloid polypeptide reduced, disulphide removed; UniProt P12969 38-45, looked up, fragment)”, in data set [1] (with amylin), the “blocking of amylin's inhibition of bone resorption” value is “did not act as a blocker”. Besides, in data set [3], the “proliferative effect on osteoblasts” value is “no proliferative effect”, the “blocking of the effects of amylin-(1-8) on osteoblast proliferation” value was “effective blocker”, the “blocking of the action of intact amylin on cell number” value was “effective blocker” and the “blocking of the action of intact amylin on thymidine incorporation” value is listed as “effective blocker”. In addition, in data set [3] (setting [5]), the “proliferative effect on osteoblasts” value was “inactive” and the “blocking of the effects of amylin-(1-8) on osteoblast proliferation” value is “blocks the activity of amylin (1-8)”.
With “Reduced Amylin: Rat amylin reduced with dithiothreitol (2-7 disulphide removed)”, the “ability to block amylin's stimulation of osteoblast proliferation after pre-incubation” value in data set [2] is “decreased their ability to block”. In data set [3], the “proliferative effect on osteoblasts” value is recorded as “no proliferative effect”, the “blocking of the action of intact amylin on cell number” value is recorded as “effective blockers” and the “blocking of the action of intact amylin on thymidine incorporation” value is listed as “effective blockers”.
Consider “Amylin-(8-37): rat amylin fragment 8-37; functions as an amylin antagonist in other tissues”, for which the “ability to block amylin's stimulation of osteoblast proliferation after pre-incubation” value in data set [2] is “decreased their ability to block”. Further, the “concentration that completely blocked the proliferative effect of intact amylin” value in data set [3] was ≥ 10^−10 M.
Consider `C[C@H](NC(=O)[C@@H]1CSSC[C@H](NC(=O)[C@@H](N)CCCCN)C(=O)N[C@@H](CC(N)=O)C(=O)N[C@@H]([C@@H](C)O)C(=O)N[C@@H](C)C(=O)N[C@@H]([C@@H](C)O)C(=O)N1)C(N)=O` [Amylin-(1-8), Lysine-c[cysteine-asparagine-threonine-alanine-threonine-cysteine]-alanine-NH2] (H-KCNTATCA-NH2; disulfide 2-7), for which the “effect on basal bone resorption” value in data set [1] was “lack of effect”. The “effect on bone resorption, multiple additions” value in data set [1] (additions at 0, 8 and 30 hours, data not shown) is given as “did not influence bone resorption”. In data set [2], the “effect of pre-incubation for two hours on osteoblastic activity” value is “no effect” and the “osteoblastic activity after pre-incubation for four or more hours” value is reported as “completely lost their activity”. Moreover, in data set [3], the “effect on osteoblast cell number” value is recorded as “consistently stimulated” and the “effect on thymidine incorporation” value is on record as “consistently stimulated”. In data set [3] (listed as (1-8) fragment), the “effect on osteoblast cell number” value is listed as “stimulated both indices” and the “effect on thymidine incorporation” value is given as “stimulated both indices”. Also, in data set [3] (24 h, FIG. 2), the “concentrations at which the maximal effect on cell number was seen” value is given as ≥ 10^−9 M, the “maximal effect on cell number compared with intact amylin” value is “not significantly less than that produced by the intact molecule” and the EC50 was found to be 0.24 nM. In addition, the “proliferative effect on osteoblasts” value in data set [3] (listed as Amylin (1-8)) is “active”. Further, in data set [3] (listed as amylin-(1-8)), the “proliferative effect on osteoblasts” value was “stimulates osteoblast proliferation”.

The record behind these values is patent US6821954B2, “Compounds and uses thereof in treating bone disorders” (Auckland UniServices Limited, priority 1997, dated 2004).
